Experimental data reported in patent publication US12691112B2, “FGFR tyrosine kinase inhibitors for the treatment of urothelial carcinoma” (Janssen Pharmaceutica NV, priority 2019, dated 2026).
Where two headings read alike, the source gives them in different places.

System: subjects with metastatic or surgically unresectable urothelial cancer
[1] = all-causality, 6 mg continuous, n = 78

Procedure: Study treatment was administered on 28-day cycles. […] Patients were randomized 1:1 to 28-day cycles to the following 2 regimens until a regimen was selected for further study: Regimen 1 (10 mg once daily intermittent (7 days on/7 days); Regimen 2 (6 mg once daily continuous). Randomization was stratified according to performance status (0 to 1 vs. 2), hemoglobin value (<10 vs. ≥10 g per dl), FGFR alteration type (mutation vs. fusion), prior treatment status (chemotherapy-resistant vs. chemotherapy naïve), and disease distribution (presence or absence of visceral [liver, lung, bone]metastases). Starting dose selection was based on phase 1 efficacy and tolerability.
Based on interim analysis and pharmacokinetic-pharmacodynamic modeling of serum phosphate levels, starting dose was increased to 8 mg per day continuous (Regimen 3). Thus, after interim analysis, this became a single-arm study. […] Treatment continued until disease progression or unacceptable adverse event(s) per investigator.
Safety was evaluated based on clinical laboratory tests, physical exams, electrocardiograms, and ophthalmology examinations. Adverse events and abnormalities were assessed by investigator and graded per NCI CTCAE v.4.0
Prophylactic measures were taken to minimize risk of common adverse events related to FGFR inhibition. To reduce risk of hyperphosphatemia, a low-phosphate diet was recommended for all patients (600 to 800 mg of dietary phosphate intake per day). To reduce the risk of skin effects, the application of alcohol-free emollient moisturizing cream and avoidance of unnecessary exposure to sunlight, soap, perfumed products, and hot baths was recommended. Patients were asked to keep their fingers and toes clean and nails trimmed to reduce risk of nail effects.
Additional ophthalmology examinations were performed if clinically indicated.

COc1cc(OC)cc(N(CCNC(C)C)c2ccc3ncc(-c4cnn(C)c4)nc3c2)c1 [erdafitinib, N-(3,5-dimethoxy-phenyl)-N′-(1-methylethyl)-N-[3-(1-methyl-1H-pyrazol-4-yl)quinoxalin-6-yl]ethane-1,2-diamine]
Serious treatment-emergent: Dyspnea (6 mg continuous, n = 78): 1 (1) no. (%)
Serious treatment-emergent: Eye disorders (6 mg continuous, n = 78): 3 (4) no. (%)
Serious treatment-emergent: Gastrointestinal disorders (6 mg continuous, n = 78): 8 (10) no. (%)
Serious treatment-emergent: Infections and infestations (6 mg continuous, n = 78): 13 (17) no. (%)
Serious treatment-emergent: Metabolism and nutrition disorders (6 mg continuous, n = 78): 3 (4) no. (%)
Serious treatment-emergent: Nervous system disorders (6 mg continuous, n = 78): 5 (6) no. (%)
Serious treatment-emergent: Renal and urinary disorders (6 mg continuous, n = 78): 5 (6) no. (%)
Serious treatment-emergent: Respiratory, thoracic, mediastinal disorders (6 mg continuous, n = 78): 3 (4) no. (%)
Serious treatment-emergent: Urinary tract infection (6 mg continuous, n = 78): 4 (5) no. (%)
Serious treatment-emergent: Urosepsis (6 mg continuous, n = 78): 3 (4) no. (%)
Total number of patients with serious treatment-emergent adverse events (6 mg continuous, n = 78): 39 (50) no. (%)
Serious treatment-emergent: Dyspnea (8 mg continuous, n = 99): 2 (2) no. (%)
Serious treatment-emergent: Eye disorders (8 mg continuous, n = 99): 9 (9) no. (%)
Serious treatment-emergent: Gastrointestinal disorders (8 mg continuous, n = 99): 8 (8) no. (%)
Serious treatment-emergent: Infections and infestations (8 mg continuous, n = 99): 9 (9) no. (%)
Serious treatment-emergent: Metabolism and nutrition disorders (8 mg continuous, n = 99): 2 (2) no. (%)
Serious treatment-emergent: Nervous system disorders (8 mg continuous, n = 99): 1 (1) no. (%)
Serious treatment-emergent: Renal and urinary disorders (8 mg continuous, n = 99): 10 (10) no. (%)
Serious treatment-emergent: Respiratory, thoracic, mediastinal disorders (8 mg continuous, n = 99): 3 (3) no. (%)
Serious treatment-emergent: Urinary tract infection (8 mg continuous, n = 99): 3 (3) no. (%)
Serious treatment-emergent: Urosepsis (8 mg continuous, n = 99): 2 (2) no. (%)
Total number of patients with serious treatment-emergent adverse events (8 mg continuous, n = 99): 39 (39) no. (%)
Treatment-related Alanine aminotransferase increased, any grade (8 mg continuous, n = 99): 12 (12) no. (%)
Treatment-related Alanine aminotransferase increased, grade 1 (8 mg continuous, n = 99): 9 (9) no. (%)
Treatment-related Alanine aminotransferase increased, grade 2 (8 mg continuous, n = 99): 2 (2) no. (%)
Treatment-related Alanine aminotransferase increased, grade 3 (8 mg continuous, n = 99): 1 (1) no. (%)
Treatment-related Alopecia, any grade (8 mg continuous, n = 99): 27 (27) no. (%)
Treatment-related Alopecia, grade 1 (8 mg continuous, n = 99): 21 (21) no. (%)
Treatment-related Alopecia, grade 2 (8 mg continuous, n = 99): 6 (6) no. (%)
Treatment-related Alopecia, grade 3 (8 mg continuous, n = 99): 0 no. (%)
Treatment-related Asthenia, any grade (8 mg continuous, n = 99): 13 (13) no. (%)
Treatment-related Asthenia, grade 1 (8 mg continuous, n = 99): 2 (2) no. (%)
Treatment-related Asthenia, grade 2 (8 mg continuous, n = 99): 9 (9) no. (%)
Treatment-related Asthenia, grade 3 (8 mg continuous, n = 99): 2 (2) no. (%)
Treatment-related Decreased appetite, any grade (8 mg continuous, n = 99): 25 (25) no. (%)
Treatment-related Decreased appetite, grade 1 (8 mg continuous, n = 99): 11 (11) no. (%)
Treatment-related Decreased appetite, grade 2 (8 mg continuous, n = 99): 14 (14) no. (%)
Treatment-related Decreased appetite, grade 3 (8 mg continuous, n = 99): 0 no. (%)
Treatment-related Diarrhea, any grade (8 mg continuous, n = 99): 37 (37) no. (%)
Treatment-related Diarrhea, grade 1 (8 mg continuous, n = 99): 21 (21) no. (%)
Treatment-related Diarrhea, grade 2 (8 mg continuous, n = 99): 12 (12) no. (%)
Treatment-related Diarrhea, grade 3 (8 mg continuous, n = 99): 4 (4) no. (%)
Treatment-related Dry eye, any grade (8 mg continuous, n = 99): 19 (19) no. (%)
Treatment-related Dry eye, grade 1 (8 mg continuous, n = 99): 14 (14) no. (%)
Treatment-related Dry eye, grade 2 (8 mg continuous, n = 99): 4 (4) no. (%)
Treatment-related Dry eye, grade 3 (8 mg continuous, n = 99): 1 (1) no. (%)
Treatment-related Dry mouth, any grade (8 mg continuous, n = 99): 43 (43) no. (%)
Treatment-related Dry mouth, grade 1 (8 mg continuous, n = 99): 32 (32) no. (%)
Treatment-related Dry mouth, grade 2 (8 mg continuous, n = 99): 11 (11) no. (%)
Treatment-related Dry mouth, grade 3 (8 mg continuous, n = 99): 0 no. (%)
Treatment-related Dry skin, any grade (8 mg continuous, n = 99): 32 (32) no. (%)
Treatment-related Dry skin, grade 1 (8 mg continuous, n = 99): 24 (24) no. (%)
Treatment-related Dry skin, grade 2 (8 mg continuous, n = 99): 8 (8) no. (%)
Treatment-related Dry skin, grade 3 (8 mg continuous, n = 99): 0 no. (%)
Treatment-related Dysgeusia, any grade (8 mg continuous, n = 99): 35 (35) no. (%)
Treatment-related Dysgeusia, grade 1 (8 mg continuous, n = 99): 22 (22) no. (%)
Treatment-related Dysgeusia, grade 2 (8 mg continuous, n = 99): 12 (12) no. (%)
Treatment-related Dysgeusia, grade 3 (8 mg continuous, n = 99): 1 (1) no. (%)
Treatment-related Fatigue, any grade (8 mg continuous, n = 99): 21 (21) no. (%)
Treatment-related Fatigue, grade 1 (8 mg continuous, n = 99): 8 (8) no. (%)
Treatment-related Fatigue, grade 2 (8 mg continuous, n = 99): 11 (11) no. (%)
Treatment-related Fatigue, grade 3 (8 mg continuous, n = 99): 2 (2) no. (%)
Treatment-related Hand-foot syndrome, any grade (8 mg continuous, n = 99): 22 (22) no. (%)
Treatment-related Hand-foot syndrome, grade 1 (8 mg continuous, n = 99): 5 (5) no. (%)
Treatment-related Hand-foot syndrome, grade 2 (8 mg continuous, n = 99): 12 (12) no. (%)
Treatment-related Hand-foot syndrome, grade 3 (8 mg continuous, n = 99): 5 (5) no. (%)
Treatment-related Hyperphosphatemia, any grade (8 mg continuous, n = 99): 72 (73) no. (%)
Treatment-related Hyperphosphatemia, grade 1 (8 mg continuous, n = 99): 49 (50) no. (%)
Treatment-related Hyperphosphatemia, grade 2 (8 mg continuous, n = 99): 21 (21) no. (%)
Treatment-related Hyperphosphatemia, grade 3 (8 mg continuous, n = 99): 2 (2) no. (%)
Treatment-related Lacrimation increased, any grade (8 mg continuous, n = 99): 11 (11) no. (%)
Treatment-related Lacrimation increased, grade 1 (8 mg continuous, n = 99): 8 (8) no. (%)
Treatment-related Lacrimation increased, grade 2 (8 mg continuous, n = 99): 3 (3) no. (%)
Treatment-related Lacrimation increased, grade 3 (8 mg continuous, n = 99): 0 no. (%)
Treatment-related Nail dystrophy, any grade (8 mg continuous, n = 99): 16 (16) no. (%)
Treatment-related Nail dystrophy, grade 1 (8 mg continuous, n = 99): 5 (5) no. (%)
Treatment-related Nail dystrophy, grade 2 (8 mg continuous, n = 99): 5 (5) no. (%)
Treatment-related Nail dystrophy, grade 3 (8 mg continuous, n = 99): 6 (6) no. (%)
Treatment-related Onycholysis, any grade (8 mg continuous, n = 99): 16 (16) no. (%)
Treatment-related Onycholysis, grade 1 (8 mg continuous, n = 99): 4 (4) no. (%)
Treatment-related Onycholysis, grade 2 (8 mg continuous, n = 99): 10 (10) no. (%)
Treatment-related Onycholysis, grade 3 (8 mg continuous, n = 99): 2 (2) no. (%)
Treatment-related Paronychia, any grade (8 mg continuous, n = 99): 14 (14) no. (%)
Treatment-related Paronychia, grade 1 (8 mg continuous, n = 99): 1 (1) no. (%)
Treatment-related Paronychia, grade 2 (8 mg continuous, n = 99): 10 (10) no. (%)
Treatment-related Paronychia, grade 3 (8 mg continuous, n = 99): 3 (3) no. (%)
Treatment-related Stomatitis, any grade (8 mg continuous, n = 99): 54 (55) no. (%)
Treatment-related Stomatitis, grade 1 (8 mg continuous, n = 99): 19 (19) no. (%)
Treatment-related Stomatitis, grade 2 (8 mg continuous, n = 99): 26 (26) no. (%)
Treatment-related Stomatitis, grade 3 (8 mg continuous, n = 99): 9 (9) no. (%)
Treatment-related Vision blurred, any grade (8 mg continuous, n = 99): 16 (16) no. (%)
Treatment-related Vision blurred, grade 1 (8 mg continuous, n = 99): 10 (10) no. (%)
Treatment-related Vision blurred, grade 2 (8 mg continuous, n = 99): 6 (6) no. (%)
Treatment-related Vision blurred, grade 3 (8 mg continuous, n = 99): 0 no. (%)
Treatment-related Weight decreased, any grade (8 mg continuous, n = 99): 10 (10) no. (%)
Treatment-related Weight decreased, grade 1 (8 mg continuous, n = 99): 5 (5) no. (%)
Treatment-related Weight decreased, grade 2 (8 mg continuous, n = 99): 5 (5) no. (%)
Treatment-related Weight decreased, grade 3 (8 mg continuous, n = 99): 0 no. (%)
some type of eye disorder, regardless of relation to treatment (8 mg per day continuous): 63%
treatment-related CSR grade ≥3 events (8 mg per day continuous): 3%
treatment-related central serous retinopathy (CSR) (8 mg per day continuous): 21%
treatment-related dry skin (8 mg per day continuous): 32%
treatment-related effects on the nails (8 mg per day continuous): 52%
treatment-related effects on the skin (8 mg per day continuous): 49%
treatment-related hand-foot syndrome (8 mg per day continuous): 22%
treatment-related hyperphosphatemia (8 mg per day continuous): 73%
treatment-related nail dystrophy (8 mg per day continuous): 16%
treatment-related onycholysis (8 mg per day continuous): 16%
patients with grade ≥3 treatment-emergent adverse events (8 mg per day continuous group uptitrated to 9 mg per day): 68%
grade 1 or 2 events among patients with eye disorders (8 mg per day continuous, patients with eye disorders (n=62)): 84%
Serious treatment-emergent: Dyspnea (10 mg intermittent, n = 33): 2 (6) no. (%)
Serious treatment-emergent: Eye disorders (10 mg intermittent, n = 33): 1 (3) no. (%)
Serious treatment-emergent: Gastrointestinal disorders (10 mg intermittent, n = 33): 2 (6) no. (%)
Serious treatment-emergent: Infections and infestations (10 mg intermittent, n = 33): 2 (6) no. (%)
Serious treatment-emergent: Metabolism and nutrition disorders (10 mg intermittent, n = 33): 1 (3) no. (%)
Serious treatment-emergent: Nervous system disorders (10 mg intermittent, n = 33): 0 no. (%)
Serious treatment-emergent: Renal and urinary disorders (10 mg intermittent, n = 33): 1 (3) no. (%)
Serious treatment-emergent: Respiratory, thoracic, mediastinal disorders (10 mg intermittent, n = 33): 4 (12) no. (%)
Serious treatment-emergent: Urinary tract infection (10 mg intermittent, n = 33): 0 no. (%)
Serious treatment-emergent: Urosepsis (10 mg intermittent, n = 33): 0 no. (%)
Total number of patients with serious treatment-emergent adverse events (10 mg intermittent, n = 33): 14 (42) no. (%)
Hyperphosphatemia reported (Regimen 3): 77%
hyperphosphatemia leading to dose reduction (Regimen 3): 9%
hyperphosphatemia managed by dose interruption (Regimen 3): 23%
patients discontinued due to treatment-emergent adverse events (Regimen 3): 13%
patients reporting treatment-emergent adverse events (Regimen 3): All patients
patients who required dose reduction (Regimen 3): 56%
patients with serious treatment-emergent adverse events (Regimen 3): 39%
stomatitis leading to dose reduction (Regimen 3): 16%
treatment-emergent adverse events grade 3 or 4 (Regimen 3): 67%
patients who required ≥1 dose reduction (Regimen 3, among 41 patients uptitrated to 9 mg per day): 59%
central serious retinopathy events resolved (all unresolved events grade 1 or 2): Seventy-six percent
Abdominal pain, any grade [1]: 14 no.
Abdominal pain, grade 1 [1]: 7 no.
Abdominal pain, grade 2 [1]: 5 no.
Abdominal pain, grade ≥ 3 [1]: 2 no.
Alanine aminotransferase increased, any grade [1]: 9 no.
Alanine aminotransferase increased, grade 1 [1]: 7 no.
Alanine aminotransferase increased, grade 2 [1]: 2 no.
Alanine aminotransferase increased, grade ≥ 3 [1]: 0 no.
Alopecia, any grade [1]: 10 no.
Alopecia, grade 1 [1]: 9 no.
Alopecia, grade 2 [1]: 1 no.
Alopecia, grade ≥ 3 [1]: 0 no.
Anemia, any grade [1]: 13 no.
Anemia, grade 1 [1]: 0 no.
Anemia, grade 2 [1]: 8 no.
Anemia, grade ≥ 3 [1]: 5 no.
Arthralgia, any grade [1]: 8 no.
Arthralgia, grade 1 [1]: 5 no.
Arthralgia, grade 2 [1]: 2 no.
Arthralgia, grade ≥ 3 [1]: 1 no.
Aspartate aminotransferase increased, any grade [1]: 9 no.
Aspartate aminotransferase increased, grade 1 [1]: 7 no.
Aspartate aminotransferase increased, grade 2 [1]: 2 no.
Aspartate aminotransferase increased, grade ≥ 3 [1]: 0 no.
Asthenia, any grade [1]: 18 no.
Asthenia, grade 1 [1]: 5 no.
Asthenia, grade 2 [1]: 4 no.
Asthenia, grade ≥ 3 [1]: 9 no.
Back pain, any grade [1]: 11 no.
Back pain, grade 1 [1]: 6 no.
Back pain, grade 2 [1]: 3 no.
Back pain, grade ≥ 3 [1]: 2 no.
Blood creatinine increased, any grade [1]: 6 no.
Blood creatinine increased, grade 1 [1]: 3 no.
Blood creatinine increased, grade 2 [1]: 3 no.
Blood creatinine increased, grade ≥ 3 [1]: 0 no.
Conjunctivitis, any grade [1]: 7 no.
Conjunctivitis, grade 1 [1]: 4 no.
Conjunctivitis, grade 2 [1]: 2 no.
